Data: patent publication US12077503B2, “Substituted cyclic amides and their use as herbicides” (FMC CORPORATION, priority 2015, dated 2024)

How the values were obtained:
Format in all cases: in vivo
[1] = tested on: velvetleaf (Abutilon theophrasti); experiment: Test G Pre-Emergence Protocol; conditions: Abutilon theophrasti, pre-emergence, 312 h, evaluated after 13 days; for pest or weed control at 15.625 g/ha: 15.625 g ai/ha; for pest or weed control at 15.625 g/ha / pest or weed control at 250 g/ha: read-out: Velvetleaf damage rating (100=total damage to plant; 0=no damage to plant); for pest or weed control at 62.5 g/ha: 62.5 g ai/ha, 100=total damage to plant, 0=no damage to plant, read-out: plant damage rating, Velvetleaf; for pest or weed control at 250 g/ha: 250 g ai/ha
Outline: (§1)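 Pre-emergence spray, 15.625/62.5/250 g/ha, vehicle acetone:water 50:50 + 0.5% Tween 20, applied 1 d after sowing. Glasshouse 24/16° C, 14 h light, 65% RH, watered twice daily. Visual damage rating at 13 d, 0–100 scale.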

[2] = tested on: giant foxtail (Setaria faberi); experiment: Test G Pre-Emergence Protocol; conditions: Setaria faberi, pre-emergence, 312 h, evaluated after 13 days; for pest or weed control at 15.625 g/ha: 15.625 g ai/ha; for pest or weed control at 15.625 g/ha / pest or weed control at 250 g/ha: read-out: Foxtail, Giant damage rating (100=total damage to plant; 0=no damage to plant); for pest or weed control at 62.5 g/ha: 62.5 g ai/ha, 100=total damage to plant, 0=no damage to plant, read-out: plant damage rating, Foxtail, Giant; for pest or weed control at 250 g/ha: 250 g ai/ha
Outline: as §1

corn (Zea mays) [3] = experiment: Test G Pre-Emergence Protocol; conditions: Zea mays, pre-emergence, 312 h, evaluated after 13 days; for plant injury at 15.625 g/ha: 15.625 g ai/ha; for plant injury at 15.625 g/ha / plant injury at 250 g/ha: read-out: Corn damage rating (100=total damage to plant; 0=no damage to plant); for plant injury at 62.5 g/ha: 62.5 g ai/ha, 100=total damage to plant, 0=no damage to plant, read-out: plant damage rating, Corn; for plant injury at 250 g/ha: 250 g ai/ha
Outline: as §1

[4] = tested on: redroot pigweed (Amaranthus retroflexus); experiment: Test G Pre-Emergence Protocol; conditions: Amaranthus retroflexus, pre-emergence, 312 h, evaluated after 13 days; for pest or weed control at 15.625 g/ha: 15.625 g ai/ha; for pest or weed control at 15.625 g/ha / pest or weed control at 250 g/ha: read-out: Pigweed, Redroot damage rating (100=total damage to plant; 0=no damage to plant); for pest or weed control at 62.5 g/ha: 62.5 g ai/ha, 100=total damage to plant, 0=no damage to plant, read-out: plant damage rating, Pigweed, Redroot; for pest or weed control at 250 g/ha: 250 g ai/ha
Outline: as §1

[5] = tested on: ivy-leaved morning glory (Ipomoea hederacea); experiment: Test G Pre-Emergence Protocol; conditions: Ipomoea, pre-emergence, 312 h, evaluated after 13 days; for pest or weed control at 15.625 g/ha: 15.625 g ai/ha, read-out: Morning-glory, Ivy-leaved damage rating (100=total damage to plant; 0=no damage to plant); for pest or weed control at 62.5 g/ha: 62.5 g ai/ha, 100=total damage to plant, 0=no damage to plant, read-out: plant damage rating, Morningglory, Ivy-leaved; for pest or weed control at 250 g/ha: 250 g ai/ha, read-out: Morningglory, Ivy-leaved damage rating (100=total damage to plant; 0=no damage to plant)
Outline: as §1

[6] = tested on: barnyardgrass (Echinochloa crus-galli); experiment: Test G Pre-Emergence Protocol; conditions: Echinochloa crus-galli, pre-emergence, 312 h, evaluated after 13 days; for pest or weed control at 15.625 g/ha: 15.625 g ai/ha, read-out: Barnyard grass damage rating (100=total damage to plant; 0=no damage to plant); for pest or weed control at 62.5 g/ha: 62.5 g ai/ha, 100=total damage to plant, 0=no damage to plant, read-out: plant damage rating, Barnyardgrass; for pest or weed control at 250 g/ha: 250 g ai/ha, read-out: Barnyardgrass damage rating (100=total damage to plant; 0=no damage to plant)
Outline: as §1

[7] = tested on: velvetleaf (Abutilon theophrasti); experiment: Test G Post-Emergence Protocol; conditions: Abutilon theophrasti, post-emergence, 312 h; for pest or weed control at 15.625 g/ha: 15.625 g ai/ha, evaluated after 13 days (100=total damage to plant; 0=no damage to plant), read-out: Velvetleaf damage rating; for pest or weed control at 62.5 g/ha: 62.5 g ai/ha, read-out: Velvetleaf damage rating (100=total damage to plant; 0=no damage to plant); for pest or weed control at 62.5 g/ha / pest or weed control at 250 g/ha: evaluated after 13 days; for pest or weed control at 250 g/ha: 250 g ai/ha, read-out: damage to plant, Velvetleaf (100=total damage to plant; 0=no damage to plant)
Outline: (§2)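 Post-emergence herbicidal damage, scored visually 0–100 at 13 days. Application at 15.625, 62.5 or 250 g/ha onto 8-day-old plants grown under glasshouse control.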

[8] = tested on: giant foxtail (Setaria faberi); experiment: Test G Post-Emergence Protocol; conditions: Setaria faberi, post-emergence, 312 h; for pest or weed control at 15.625 g/ha: 15.625 g ai/ha, evaluated after 13 days (100=total damage to plant; 0=no damage to plant), read-out: Foxtail, Giant damage rating; for pest or weed control at 62.5 g/ha: 62.5 g ai/ha, read-out: Foxtail, Giant damage rating (100=total damage to plant; 0=no damage to plant); for pest or weed control at 62.5 g/ha / pest or weed control at 250 g/ha: evaluated after 13 days; for pest or weed control at 250 g/ha: 250 g ai/ha, read-out: damage to plant, Foxtail, Giant (100=total damage to plant; 0=no damage to plant)
Outline: as §2

corn (Zea mays) [9] = experiment: Test G Post-Emergence Protocol; conditions: Zea mays, post-emergence, 312 h; for plant injury at 15.625 g/ha: 15.625 g ai/ha, evaluated after 13 days (100=total damage to plant; 0=no damage to plant), read-out: Corn damage rating; for plant injury at 62.5 g/ha: 62.5 g ai/ha, read-out: Corn damage rating (100=total damage to plant; 0=no damage to plant); for plant injury at 62.5 g/ha / plant injury at 250 g/ha: evaluated after 13 days; for plant injury at 250 g/ha: 250 g ai/ha, read-out: damage to plant, Corn (100=total damage to plant; 0=no damage to plant)
Outline: as §2

[10] = tested on: redroot pigweed (Amaranthus retroflexus); experiment: Test G Post-Emergence Protocol; conditions: Amaranthus retroflexus, post-emergence, 312 h; for pest or weed control at 15.625 g/ha: 15.625 g ai/ha, evaluated after 13 days (100=total damage to plant; 0=no damage to plant), read-out: Pigweed, Redroot damage rating; for pest or weed control at 62.5 g/ha: 62.5 g ai/ha, read-out: Pigweed, Redroot damage rating (100=total damage to plant; 0=no damage to plant); for pest or weed control at 62.5 g/ha / pest or weed control at 250 g/ha: evaluated after 13 days; for pest or weed control at 250 g/ha: 250 g ai/ha, read-out: damage to plant, Pigweed, Redroot (100=total damage to plant; 0=no damage to plant)
Outline: as §2

[11] = tested on: ivy-leaved morning glory (Ipomoea hederacea); experiment: Test G Post-Emergence Protocol; conditions: Ipomoea, post-emergence, 312 h; for pest or weed control at 15.625 g/ha: 15.625 g ai/ha, evaluated after 13 days (100=total damage to plant; 0=no damage to plant), read-out: Morningglory, Ivy-leaved damage rating; for pest or weed control at 62.5 g/ha: 62.5 g ai/ha, read-out: Morningglory, Ivy-leaved damage rating (100=total damage to plant; 0=no damage to plant); for pest or weed control at 62.5 g/ha / pest or weed control at 250 g/ha: evaluated after 13 days; for pest or weed control at 250 g/ha: 250 g ai/ha, read-out: damage to plant, Morningglory, Ivy-leaved (100=total damage to plant; 0=no damage to plant)
Outline: as §2

[12] = tested on: barnyardgrass (Echinochloa crus-galli); experiment: Test G Post-Emergence Protocol; conditions: Echinochloa crus-galli, post-emergence, 312 h; for pest or weed control at 15.625 g/ha: 15.625 g ai/ha, evaluated after 13 days (100=total damage to plant; 0=no damage to plant), read-out: Barnyardgrass damage rating; for pest or weed control at 62.5 g/ha: 62.5 g ai/ha, read-out: Barnyardgrass damage rating (100=total damage to plant; 0=no damage to plant); for pest or weed control at 62.5 g/ha / pest or weed control at 250 g/ha: evaluated after 13 days; for pest or weed control at 250 g/ha: 250 g ai/ha, read-out: damage to plant, Barnyardgrass (100=total damage to plant; 0=no damage to plant)
Outline: as §2

| Structure (SMILES) | pest or weed control at 15.625 g/ha [1] | pest or weed control at 62.5 g/ha [1] | pest or weed control at 250 g/ha [1] | pest or weed control at 15.625 g/ha [2] | pest or weed control at 62.5 g/ha [2] | pest or weed control at 250 g/ha [2] | plant injury at 15.625 g/ha (corn (Zea mays) [3]) | plant injury at 62.5 g/ha (corn (Zea mays) [3]) | plant injury at 250 g/ha (corn (Zea mays) [3]) | pest or weed control at 15.625 g/ha [4] | pest or weed control at 62.5 g/ha [4] | pest or weed control at 250 g/ha [4] | pest or weed control at 15.625 g/ha [5] | pest or weed control at 62.5 g/ha [5] | pest or weed control at 250 g/ha [5] | pest or weed control at 15.625 g/ha [6] | pest or weed control at 62.5 g/ha [6] | pest or weed control at 250 g/ha [6] | pest or weed control at 15.625 g/ha [7] | pest or weed control at 62.5 g/ha [7] | other results |
| --- | --- | --- | --- | --- | --- | --- | --- | --- | --- | --- | --- | --- | --- | --- | --- | --- | --- | --- | --- | --- | --- |
| CN1C[C@@H](c2ccc(C(F)(F)F)cc2)[C@H](C(=O)Nc2nnc(C(F)(F)F)o2)C1=O (racemic) [Compound 1604] | 0% | 0% | 0% | 0% | 0% | 0% | 0% | 0% | 0% | 0% | 0% | 0% | 0% | 0% | 0% | 0% | 0% | 0% | 0% | 0% | pest or weed control at 250 g/ha [7]: 0%; pest or weed control at 15.625 g/ha [8]: 0%; pest or weed control at 62.5 g/ha [8]: 0%; pest or weed control at 250 g/ha [8]: 0%; plant injury at 15.625 g/ha (corn (Zea mays) [9]): 0%; plant injury at 62.5 g/ha (corn (Zea mays) [9]): 0%; plant injury at 250 g/ha (corn (Zea mays) [9]): 0%; pest or weed control at 15.625 g/ha [10]: 0%; pest or weed control at 62.5 g/ha [10]: 0%; pest or weed control at 250 g/ha [10]: 0%; pest or weed control at 15.625 g/ha [11]: 0%; pest or weed control at 62.5 g/ha [11]: 0%; pest or weed control at 250 g/ha [11]: 0%; pest or weed control at 15.625 g/ha [12]: 0%; pest or weed control at 62.5 g/ha [12]: 0%; pest or weed control at 250 g/ha [12]: 0% |
| Cc1c(Cl)cccc1NC(=O)[C@@H]1C(=O)N(C)C[C@H]1c1ccc(C(F)(F)F)cc1 (racemic) [Compound 1607] | 0% | 0% | 20% | 50% | 80% | 80% | 0% | 0% | 10% | 0% | 20% | 30% | 0% | 10% | 20% | 0% | 40% | 80% | 10% | 30% | pest or weed control at 250 g/ha [7]: 40%; pest or weed control at 15.625 g/ha [8]: 50%; pest or weed control at 62.5 g/ha [8]: 80%; pest or weed control at 250 g/ha [8]: 80%; plant injury at 15.625 g/ha (corn (Zea mays) [9]): 0%; plant injury at 62.5 g/ha (corn (Zea mays) [9]): 0%; plant injury at 250 g/ha (corn (Zea mays) [9]): 60%; pest or weed control at 15.625 g/ha [10]: 0%; pest or weed control at 62.5 g/ha [10]: 40%; pest or weed control at 250 g/ha [10]: 70%; pest or weed control at 15.625 g/ha [11]: 20%; pest or weed control at 62.5 g/ha [11]: 30%; pest or weed control at 250 g/ha [11]: 60%; pest or weed control at 15.625 g/ha [12]: 0%; pest or weed control at 62.5 g/ha [12]: 50%; pest or weed control at 250 g/ha [12]: 60% |
